Values of other authors, collected in US20050197398A1, “Therapeutic agent for hepatic disease” (AJINOMOTO CO., INC, priority 2002, published 2005).

Assays:
[1] = system: rat primary culture hepatocytes; conditions: D-galactosamine loading
[2] = system: D-galactosamine-induced liver failure rat model

## C[C@H](N)C(=O)O [alanine]
[1]
  lactic dehydrogenase extracellular overflow: suppress an increase of lactic dehydrogenase extracellular overflow
[2]
  liver failure: improves liver failure
[2]; ATP becomes lower in liver failure
  level of ATP: raises the level of ATP
